The text below walks through data of patent publication US5356886A, “Antiviral phosphono-alken derivatives of purines” (Beecham Group p.l.c., priority 1990, dated 1994).

In brackets after ≈: the same amount, converted by molar mass.

The subject of one data set is CMV. Briefly: Plaque Reduction Test for Cytomegalovirus (AD-169 strain) in MRC-5 cells. The data set is classed as cell-based. The following applies: Human betaherpesvirus 5, AD169, MRC5. Here is the method:
MRC-5 cells were grown to confluence in 24 well multi-dishes (well diameter=1.5 cm). The drained cell monolayers were each infected with approximately 50 infectious particles of cytomegalovirus (CMV; AD-169 strain) in 100 μl of phosphate-buffered saline. The virus was adsorbed for 1 hour at room temperature. After adsorption, residual inoculum was removed from each well and replaced with 1 ml of Eagle's MEM containing 10% heat inactivated foetal calf serum and 0.9% agarose (A37). Once the agarose had set, dilutions of the test compound, which had been prepared in Eagle's MEM (containing 10% heat-inactivated calf serum), were added, each well receiving 1 ml of liquid overlay. The test compound was diluted to give the following series of concentrations: 200, 60, 20, 6 . . . 0.06 μg/ml; final concentrations in the assay range, therefore, between 100 μg/ml and 0.03 μg/ml. The infected cultures were incubated at 37° C. in a humidified atmosphere containing 5% CO2 until plaques were clearly visible (about 12 days). The cultures are fixed in formol saline, the agarose overlays were carefully washed off, and then the cell monolayers were stained with carbol fuchsin. A stereo microscope was used to count plaques. The IC50 (concentration of drug which inhibits the number of plaques formed by 50% relative to the number of plaques observed in virus control monolayers) of the test compound was calculated. In addition, the monolayers were examined for evidence of drug-induced cytotoxicity; the minimum concentration at which cytotoxicity occurs was recorded.
Background: In a plaque reduction assay, fewer plaques than in the control indicate reduced infectivity or spread.

Data set [1] can be described thus: Cell cytotoxicity test (MTT) in peripheral human lymphocytes. The data set is classed as cell-based. Here is the method:
Peripheral human lymphocytes were isolated by density gradient centrifugation from blood donations of healthy volunteers. The `buffy coat`-fractions of these donations were provided by blood donation centres.
The buffy coat was diluted 1:1 with sterile phosphate buffered saline (PBS; 50 mM sodium phosphate, pH 7.4, 0,9% sodium chloride) and subsequently layered over Ficoll. Following centrifugation (30 minutes at 400×g) the supernatant was discarded and the interphase containing the lymphocytes was recovered. The lymphocytes were washed two times in PBS and were resuspended finally in cell culture medium.
A viability staining was performed by means of the trypan blue dye-exclusion method. The concentration of cells in the suspension and the percentage of viable cells were calculated. […]
The lymphocytes were cultivated in an incubator with a humidified atmosphere and 5% CO2 for 48 to 64 hours at 37° C. Following this incubation period, cells were harvested by centrifugation, resuspended in cell culture medium and counted. […]
Survival and proliferation of the lymphocytes grown in the presence of the compound were measured by a quantitative colorimetric assay. […] The amount of product which is a function of cell number and metabolic cellular activity was quantified photometrically. By this assay, potential cytotoxic and cytostatic effects of compounds towards lymphocytes were detected precisely. […]

What is called IC50 is the concentration at which inhibition is half-maximal. As usually defined, the CC50 is the concentration giving 50% cytotoxicity. Low readings indicate greater toxicity to the cells, high ones lower toxicity to the cells.

`Nc1nc2c(ncn2OCC/C=C/P(=O)(O)O)c(=O)[nH]1` [Example 1, (E)-9-(4-phosphonobut-3-enyloxy)guanine] came in with an IC50 in the data set with CMV of 0.16 µg/mL (≈ 0.531 µM). Also, in data set [1], the CC50 at 96 h is 1 µM. Also, the cytotoxicity at 0.1 µM in data set [1] (at 0.1 μM, read-out: Slight toxicity (inhibition)) was determined as 18%.
